In paper PMC10625055, “A novel Bruton's tyrosine kinase inhibitor JDB175 shows potent efficacy to suppress central nervous system lymphoma” (MedComm, 2023):

Target: Bruton's tyrosine kinase (BTK) (Homo sapiens, UniProt Q06187)
Experiment: radiometric kinase assay, recombinant human kinase
Assay type: biochemical

Chain of Bruton's tyrosine kinase (BTK) (Q06187 2-659): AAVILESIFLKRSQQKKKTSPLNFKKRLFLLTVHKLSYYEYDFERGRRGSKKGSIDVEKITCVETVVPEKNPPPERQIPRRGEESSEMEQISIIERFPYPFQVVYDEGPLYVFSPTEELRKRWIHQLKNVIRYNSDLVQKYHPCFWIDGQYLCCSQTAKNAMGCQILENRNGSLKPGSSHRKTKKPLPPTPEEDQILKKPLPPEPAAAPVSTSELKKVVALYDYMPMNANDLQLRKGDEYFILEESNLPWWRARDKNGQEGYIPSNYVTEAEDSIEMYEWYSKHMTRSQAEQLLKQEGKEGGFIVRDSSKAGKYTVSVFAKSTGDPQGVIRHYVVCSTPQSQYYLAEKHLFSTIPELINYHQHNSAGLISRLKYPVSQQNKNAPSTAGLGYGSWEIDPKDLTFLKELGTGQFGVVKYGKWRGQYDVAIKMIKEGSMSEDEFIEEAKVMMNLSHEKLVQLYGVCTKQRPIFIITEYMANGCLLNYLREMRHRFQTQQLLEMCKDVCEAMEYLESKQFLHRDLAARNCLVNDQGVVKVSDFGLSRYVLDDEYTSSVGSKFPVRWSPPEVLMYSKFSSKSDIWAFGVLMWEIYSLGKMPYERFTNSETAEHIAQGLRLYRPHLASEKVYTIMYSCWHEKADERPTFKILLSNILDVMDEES

Structure (SMILES): C=CC(=O)N1CCC[C@@H](c2nn(-c3ccc(Oc4cccc(F)c4F)cc3)c3cncc(F)c23)C1 [JDB175]
- IC50: 2.1 nM
